# Article PMC7373766, “In vitro and in vivo Evaluation of in silico Predicted Pneumococcal UDPG:PP Inhibitors” (Frontiers in Microbiology, 2020)
# Experiments:
# [1] = Cytotoxicity assay (resazurin); type: cell-based; conditions: human, MRC-5 cells, maximal tested concentration 64 μM
# Description: MRC-5 cells were grown into polystyrene 96-well plates at an initial concentration of 1.5 × 10^5 cells/mL cells per well and incubated at 37°C and 5% CO2. In each well, 190 μL of cell suspension was added together with 10 μL of watery compound dilutions. Cell growth was compared to untreated control wells (100% cell growth) and medium-control wells (0% cell growth). After 3 days of incubation, cell viability was assessed using resazurin as described earlier. […] Tamoxifen was used as a positive control.
# L. monocytogenes = system: L. monocytogenes; set-up: method as in Kuenemann et al., 2018; conditions: previous research; ref Kuenemann et al., 2018; cited from earlier work
# [2] = system: S. pneumoniae polysaccharide capsule / bacterial size; experiment: FITC-dextran exclusion assay (degree of encapsulation); type: cell-based
# Description: The degree of encapsulation was determined by measuring the zone of exclusion of FITC-dextran (200 kDa, Sigma-Aldrich), as described previously ([Gates et al., 2004]; [Weinberger et al., 2009]; [Cools et al., 2018]). Briefly, bacteria were grown as described earlier until logarithmic phase with or without 50 μM of compound, centrifuged for 5 min at 5000 g and resuspended in PBS. To 100 μL of bacterial suspension 20 μL FITC-dextran (10 μg/mL in water) was added and 10 μL of this suspension was subsequently used to create wet mounts with cover slips. The slides were viewed on a Zeiss Observer.Z1 microscope with a 100x objective, and fluorescent images were captured with a Zeiss AxioCam MRm camera. The images were converted into grayscale and analyzed using ImageJ software. The area of FITC exclusion was determined. For each fluorescent image, a brightfield image was also recorded in order to count the number of bacteria per chain. For each strain, the mean of 150–300 cells was determined, and at least two images were collected from each of at least two independently prepared slides.
# S. pneumoniae = experiment: Galleria mellonella killing assay; type: in vivo
# Description: Larvae were purchased from a local vendor (Anaconda Reptiles, Kontich, Belgium) and stored in wood chips at 15°C before use. Four hours before use, larvae were put at 4°C. A sterile 20 μL Hamilton syringe was used to inject 10 μL aliquots of bacterial suspensions into the hindmost left proleg of Galleria mellonella. Bacteria were grown mid logarithmic phase for 6 h with or without 1, 10, 50 or 200 μM compounds, washed and resuspended in PBS before infection. The control group was injected with 10 μL PBS. A minimum of 10 larvae per group was used. Following the injections, larvae were incubated at 37°C in the dark for several days to allow progression of the pneumococcal infection. Every 24 h, larvae were scored as dead or alive. Larvae were determined dead when no signs of movement could be observed in response to external stimuli. For each strain, at least four independent repeats were carried out.
SMILES,CC50 at 3 days [1] [µM],Activity on L. monocytogenes (L. monocytogenes),"Effect on bacterial size (area of FITC-dextran exclusion) ([2]; strain R6, 50 μM of compound)","Effect on larval survival, dose-response (S. pneumoniae; strain TIGR4 grown with 1 μM compound)","Effect on larval survival, dose-response (S. pneumoniae; strain TIGR4 grown with 10 μM compound)","Effect on larval survival, dose-response (S. pneumoniae; strain TIGR4 grown with 50 μM compound)","Effect on larval survival, dose-response (S. pneumoniae; strain TIGR4 grown with 200 μM compound)","Effect on bacterial size (area of FITC-dextran exclusion) ([2]; strain M23 galU mutant, 50 μM of compound)"
NCCCOc1cccc(C(=O)NC2CCC(n3cc(F)c(=O)[nH]c3=O)C(O)C2O)c1 (centres unmarked) [BDG 33920985],43.7,active,,,,,,
NCCOc1cccc(C(=O)NC2CCCC(n3ccc(=O)[nH]c3=O)C2O)c1 (centres unmarked) [BDH 33910157],> 64,active,no effect,inactive,inactive,significantly improved larval survival,significantly improved larval survival,
NCCCOc1cccc(C(=O)NC2CCCC(n3cnc4c(N)ncnc43)C2O)c1 (centres unmarked) [BDH 33910188],> 64,,,,,,,no effect
